Holding throughout (type): cell-based
The subject of data set [1] is T. b. rhod. In words: In vitro counter screen, T. b. rhod. The protocol:
(§1) In vitro counter screens were performed to confirm our findings.
In general terms: The purpose of a counterscreen is to sort out artefacts and off-target activity.

In data set [2] the test system is T. cruzi. In words: In vitro counter screen, T. cruzi. As to conditions: Trypanosoma cruzi. The procedure:
A high-throughput screen of small molecules was performed in duplicate in the recombinant Tulahuen strain of T. cruzi stably expressing a beta-galactosidase reporter gene. Trypomastogote-stage parasites were co-cultured with mouse fibroblast NIH/3T3 host cells, (Buckner F S, Verlinde C L, La Flamme A C, Van Voorhis W C. Efficient technique for screening drugs for activity against Trypanosoma cruzi using parasites expressing beta-galactosidase. Antimicrob Agents Chemother. 1996; 40(11): 2592-2597). Signal was normalized to neutral (DMSO) controls, and a 75% inhibition cutoff was used to define a hit. Compounds initially designated as hits were retested in dose in the primary assay to confirm their inhibitory activity. In parallel, compounds were tested in toxicity assays against NIH/3T3 host cells to determine if these compounds were cytotoxic to mammalian cells and thus, false positives. Compounds that reduced the viability of NIH/3T3 cells were excluded as viable hits. A subset of hits were then tested in a similar infection assay with the Tulahuen strain of T. cruzi infecting murine L-6 cells and the intracellular T. cruzi immunofluorescence assay described below.
as §1

The subject of data set [3] is L. don. axen. Put plainly: In vitro counter screen, L. don. axen. The procedure:
as §1

Data set [4] relates to P. falc. K1. Put plainly: In vitro counter screen, P. falc. K1. The procedure: as §1
Data set [5] can be described thus: In vitro counter screen, cytotoxicity L6. The settings on record: murine.
[6] abbreviates: read-out: T. b. rhod. (IC50, ug/mL).
The mark [7] stands for this setting: same result as ug/mL, in uM, read-out: T. b. rhod (IC50 uM).
Setting [8] is: read-out: T. cruzi IC50 (ug/mL).
[9] abbreviates: same result as ug/mL, in uM, read-out: L. don. Axen (IC50 uM).
Where [10] appears, read: same result as ug/mL, in uM, read-out: P. falc. K1 (IC50 uM).

Structures are written as SMILES. Where “and” joins values, the source holds several entries; their conditions need not be identical. Equal values may be shown once. Read-outs that look alike come from different tables or passages of the source. Where only a bound is given, the exact number is not on record here.

Our source for the IC50 values is patent publication US20140045860A1, “SMALL MOLECULE INHIBITORS FOR TREATING PARASITIC INFECTIONS” (NEW YORK UNIVERSITY, priority 2011, published 2014).

For the compound `COc1ccc(CN(C)C[C@@H]2Oc3c(NC(=O)c4ccncc4)cccc3C(=O)N([C@H](C)CO)C[C@H]2C)cc1` [Compound 5], the IC50 in data set [1] (setting [6]) is 20.2 µg/mL; in data set [1] (setting [7]), 37.9 µM; in data set [2] (read-out: T. cruzi (IC50 uM)), 1.31 µM; in data set [2] (setting [8]) it was 0.699 µg/mL; in data set [3] (read-out: L. don. axen. IC50) it was over 100 µg/mL; in data set [3] (setting [9]) it was over 188 µM. Also, the IC50 in data set [4] (read-out: P. falc. K1 IC50) is 7.39 µg/mL; in data set [4] (setting [10]), 13.9 µM; in data set [5], > 188 µM and > 100 µg/mL.

Take `C[C@H](CO)N1C[C@H](C)[C@H](CN(C)Cc2ccccc2)Oc2c(NC(=O)c3ccncc3)cccc2C1=O` [Compound 1]: the IC50 is 75.4 µg/mL in data set [1] (setting [6]); 150 µM in data set [1] (setting [7]); 1.24 µM in data set [2] (read-out: T. cruzi (IC50 uM)); 0.622 µg/mL in data set [2] (setting [8]); over 100 µg/mL in data set [3] (read-out: L. don. axen. IC50); over 199 µM in data set [3] (setting [9]). For the same compound, the IC50 in data set [4] (read-out: P. falc. K1 IC50) was 20.6 µg/mL; in data set [4] (setting [10]), 41 µM; in data set [5] it was > 199 µM and > 100 µg/mL.

With `C[C@H](CO)N1C[C@H](C)[C@@H](CN(C)Cc2ccc(C(F)(F)F)cc2)Oc2c(NC(=O)c3ccncc3)cccc2C1=O` [Compound 13], the IC50 was found to be 3.49 µg/mL in data set [1] (setting [6]); 6.12 µM in data set [1] (setting [7]); 0.875 µM in data set [2] (read-out: T. cruzi (IC50 uM)); 0.499 µg/mL in data set [2] (setting [8]); 16.3 µg/mL in data set [3] (read-out: L. don. axen. IC50); 28.6 µM in data set [3] (setting [9]). For the same compound, the IC50 was 2.95 µg/mL in data set [4] (read-out: P. falc. K1 IC50); 5.17 µM in data set [4] (setting [10]); 79.7 µM and 45.5 µg/mL in data set [5].

Regarding `C[C@@H]1CN([C@@H](C)CO)C(=O)c2cccc(NC(=O)c3ccncc3)c2O[C@H]1CN(C)Cc1ccc(-c2ccccc2)cc1` [Compound 7], the IC50 came to 0.729 µg/mL in data set [1] (setting [6]); 1.26 µM in data set [1] (setting [7]); 0.123 µM in data set [2] (read-out: T. cruzi (IC50 uM)); 0.071 µg/mL in data set [2] (setting [8]); 13.3 µg/mL in data set [3] (read-out: L. don. axen. IC50); 23 µM in data set [3] (setting [9]). Also, the IC50 is 1.2 µg/mL in data set [4] (read-out: P. falc. K1 IC50); 2.07 µM in data set [4] (setting [10]); 23.3 µM and 13.5 µg/mL in data set [5].

For the compound `C[C@@H]1CN([C@H](C)CO)C(=O)c2cccc(NC(=O)c3ccncc3)c2O[C@H]1CN(C)Cc1ccc2c(c1)OCO2` [Compound 8], the IC50 is 12.5 µM in data set [1] (setting [7]); 0.143 µM in data set [2] (read-out: T. cruzi (IC50 uM)); over 183 µM in data set [3] (read-out: L. don. Axen (IC50 uM)); 10.6 µM in data set [4] (setting [10]); over 183 µM in data set [5] (L6 cells, same result as ug/mL, in uM, read-out: cytotox, (IC50 uM)).

With `C[C@H]1CN([C@@H](C)CO)C(=O)c2cccc(NC(=O)c3ccncc3)c2O[C@H]1CN(C)Cc1ccccc1` [Compound 17], the IC50 in data set [1] (setting [6]) was 6.14 µg/mL; in data set [1] (setting [7]), 12.2 µM; in data set [2] (read-out: T. cruzi (IC50 uM)), 0.39 µM; in data set [2] (setting [8]), 0.196 µg/mL; in data set [3] (read-out: L. don. axen. IC50), over 100 µg/mL; in data set [3] (setting [9]), over 199 µM. Also, the IC50 in data set [4] (read-out: P. falc. K1 IC50) was 5.64 µg/mL; in data set [4] (setting [10]), 11.2 µM; in data set [5], > 199 µM and > 100 µg/mL.

For `C[C@H]1CN([C@@H](C)CO)C(=O)c2cccc(NC(=O)c3ccncc3)c2O[C@H]1CN(C)Cc1ccc(-c2ccccc2)cc1` [Compound 20], the IC50 came out at 6.41 µg/mL in data set [1] (setting [6]); 11.1 µM in data set [1] (setting [7]); 0.394 µM in data set [2] (read-out: T. cruzi (IC50 uM)); 0.228 µg/mL in data set [2] (setting [8]); 6.47 µg/mL in data set [3] (read-out: L. don. axen. IC50); 11.2 µM in data set [3] (setting [9]). Besides, the IC50 in data set [4] (read-out: P. falc. K1 IC50) was 1.14 µg/mL; in data set [4] (setting [10]) it was 1.97 µM; in data set [5] it was 30.2 µM and 17.5 µg/mL.

Turning to `C[C@@H]1CN([C@H](C)CO)C(=O)c2cccc(NC(=O)c3ccncc3)c2O[C@H]1CN(C)Cc1ccccc1` [Compound 9], the IC50 is 35.1 µg/mL in data set [1] (setting [6]); 69.8 µM in data set [1] (setting [7]); 0.304 µM in data set [2] (read-out: T. cruzi (IC50 uM)); 0.153 µg/mL in data set [2] (setting [8]); 84.4 µg/mL in data set [3] (read-out: L. don. axen. IC50); 168 µM in data set [3] (setting [9]). The IC50 is 4.83 µg/mL in data set [4] (read-out: P. falc. K1 IC50); 9.61 µM in data set [4] (setting [10]); > 199 µM and > 100 µg/mL in data set [5].
